Here are results for one compound from ChEMBL document CHEMBL1132317, “Solution structure of iron(III)-anthracycline complexes” (J Med Chem, 1999).

By IC50 is commonly meant the concentration needed to halve the response being measured.

The assay relates to K562. In words: Cytotoxic activity against K562 erythroleukemic cells. In kind it is functional, cell-based. Conditions: Homo sapiens.

`CC(=O)[C@]1(O)Cc2c(O)c3c(c(O)c2[C@@H](O[C@H]2C[C@H](N)[C@H](O)[C@H](C)O2)C1)C(=O)c1ccccc1C3=O` [IDARUBICIN] gave an IC50 of 2 nM.
